pIC50: −log10 of the molar value. “Also recorded” adds a separate entry of the source.
Biological target: T1, porcine pancreatic lipase (Sus scrofa, UniProt P00591)
T1 construct: purchased Sigma
T1 sequence (P00591 1-450): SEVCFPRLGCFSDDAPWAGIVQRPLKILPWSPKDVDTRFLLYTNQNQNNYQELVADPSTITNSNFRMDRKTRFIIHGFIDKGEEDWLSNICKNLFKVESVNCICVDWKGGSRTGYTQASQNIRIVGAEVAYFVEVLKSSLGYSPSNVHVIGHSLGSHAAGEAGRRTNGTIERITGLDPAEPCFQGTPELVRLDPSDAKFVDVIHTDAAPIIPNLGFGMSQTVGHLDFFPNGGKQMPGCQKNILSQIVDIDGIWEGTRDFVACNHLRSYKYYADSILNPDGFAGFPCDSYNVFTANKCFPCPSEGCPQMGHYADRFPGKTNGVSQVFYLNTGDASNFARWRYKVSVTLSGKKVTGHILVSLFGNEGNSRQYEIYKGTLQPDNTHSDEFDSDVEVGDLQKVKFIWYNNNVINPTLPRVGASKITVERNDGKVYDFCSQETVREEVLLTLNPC
Test: Lipase inhibitory activity assay (4-MUO fluorescent substrate)
Type: biochemical
Conditions: for lipase inhibitory activity (in words) / pIC50: porcine pancreatic lipase; for lipase inhibitory activity (in words): 4-MUO, comparison among major tea catechins; for pIC50: substrate 4-MUO, 25° C., 30 minutes, pH 8.0
Protocol: A lipase activity assay was performed by using the oleate ester of fluorescent 4-methylumbelliferone (4-MUO) as a substrate to measure the fluorescence of 4-methylumbelliferone produced by reaction.
The buffer used for the assay was 13 mM Tris-HCl (pH 8.0) containing 150 mM NaCl, 1.36 mM CaCl2. The enzyme assay was performed using a 0.1 M solution of the substrate 4-MUO (Sigma) in DMSO diluted 1:1000 in said buffer and a solution of porcine pancreatic lipase (Sigma) prepared at 400 U/ml also in said buffer.
An enzymatic reaction was started by adding 25 μl of the lipase/buffer solution after 50 μl of the 4-MUO/buffer solution and 25 μl of distilled water (or an aqueous solution of each sample) were added and mixed in a 96-well microplate at 25° C. After the reaction was performed for 30 minutes, the reaction was stopped by adding 100 μl of a 0.1 M citrate buffer (pH 4.2) and the fluorescence of 4-methylumbelliferone produced by the reaction (excitation 355 nm, emission 460 nm) was measured using a fluorescence plate reader (Fluoroskan Asent CF from Labsystems).
The inhibitory activity of each test sample was determined as IC50(μM), i.e. the amount of the sample giving 50% inhibition of the activity of the control (distilled water).

| pIC50 | lipase inhibitory activity relative to GCG (12) (fold higher activity than (−)-gallocatechin 3-O-gallate) | lipase inhibitory activity relative to EGCG (6) (fold higher activity than (−)-epigallocatechin 3-O-gallate) | Molecule | lipase inhibitory activity (in words) |
| --- | --- | --- | --- | --- |
| 6.67 | about twice higher | – | O=C(Oc1cc(O)cc2c1C[C@H](OC(=O)c1cc(O)c(O)c(O)c1)[C@@H](c1cc(O)c(O)c(O)c1)O2)c1cc(O)c(O)c(O)c1 [compound 13, (−)-gallocatechin 3,5-di-O-gallate] | – |
| 6.05 | – | – | O=C(/C=C/c1ccc(O)cc1)O[C@@H]1Cc2c(O)cc(O)cc2O[C@@H]1c1cc(O)c(O)c(O)c1 [compound 8, (−)-epigallocatechin 3-O-p-coumaroate] | – |
| < 4.70 | – | – | Oc1cc(O)c2c(c1)O[C@H](c1cc(O)c(O)c(O)c1)[C@@H](O)C2 [compound 11, (+)-gallocatechin] | – |
| 7.01 | – | about 3.5 times | O=C(Oc1cc(O)cc2c1C[C@@H](OC(=O)c1cc(O)c(O)c(O)c1)[C@@H](c1cc(O)c(O)c(O)c1)O2)c1cc(O)c(O)c(O)c1 [compound 7, (−)-epigallocatechin 3,5-di-O-gallate] | – |
| < 4.70 | – | – | Oc1cc(O)c2c(c1)O[C@H](c1ccc(O)c(O)c1)[C@@H](O)C2 [compound 9, (+)-catechin] | did not show lipase inhibitory activity |

Second part, the molecule before the results:

| Molecule | pIC50 | lipase inhibitory activity relative to GCG (12) (fold higher activity than (−)-gallocatechin 3-O-gallate) | lipase inhibitory activity relative to EGCG (6) (fold higher activity than (−)-epigallocatechin 3-O-gallate) | lipase inhibitory activity (in words) |
| --- | --- | --- | --- | --- |
| O=C(O[C@@H]1Cc2c(O)cc(O)cc2O[C@H]1c1ccc(O)c(O)c1)c1cc(O)c(O)c(O)c1 [compound 10, (−)-catechin 3-O-gallate] | 6.27 | – | – | showed lipase inhibitory activity |
| COc1cc(C(=O)O[C@@H]2Cc3c(O)cc(O)cc3O[C@@H]2c2ccc(O)c(O)c2)cc(O)c1O [compound 4, (−)-epicatechin 3-O-(3′-O-methyl-gallate)] | 6.17 | – | – | – |
| O=C(O[C@@H]1Cc2c(O)cc(O)cc2O[C@H]1c1cc(O)c(O)c(O)c1)c1cc(O)c(O)c(O)c1 [compound 12, (−)-gallocatechin 3-O-gallate] | 6.36 | – | – | showed lipase inhibitory activity |
| O=C(O[C@@H]1Cc2c(O)cc(O)cc2O[C@@H]1c1cc(O)c(O)c(O)c1)c1cc(O)c(O)c(O)c1 [compound 6, (−)-epigallocatechin 3-O-gallate] | 6.46 | – | – | showed lipase inhibitory activity; also recorded: showed the strongest activity among these catechins |
| Oc1cc(O)c2c(c1)O[C@H](c1ccc(O)c(O)c1)[C@H](O)C2 [compound 2, (−)-epicatechin] | < 4.70 | – | – | – |
| O=C(O[C@@H]1Cc2c(O)cc3c(c2O[C@@H]1c1cc(O)c(O)c(O)c1)C1(O)C(=O)O[C@H]([C@@H](O)CO)C1(O)O3)c1cc(O)c(O)c(O)c1 (stereo partly drawn) [compound 15, 8-C-ascorbyl(−)-epigallocatechin 3-O-gallate] | 6.10 | – | – | – |
| O=C1O[C@H]([C@@H](O)CO)C2(O)Oc3cc(O)c4c(c3C12O)O[C@H](c1cc(O)c(O)c(O)c1)[C@H](O)C4 (stereo partly drawn) [compound 14, 8-C-ascorbyl(−)-epigallocatechin] | 6.19 | – | – | – |
| Oc1cc(O)c2c(c1)O[C@H](c1cc(O)c(O)c(O)c1)[C@H](O)C2 [compound 5, (−)-epigallocatechin] | < 4.70 | – | – | – |
| (−)-epiafzelechin 3-O-gallate [compound 1] | 5.59 | – | – | – |
| (−)-epicatechin 3-O-gallate [compound 3] | 6.34 | – | – | showed lipase inhibitory activity |

From patent US7939559B2, “Lipase inhibitors” (Suntory Holdings Limited, priority 2004, dated 2011)
